In patent publication US9795140B2, “Molecules having pesticidal utility, and intermediates, compositions, and processes, related thereto” (priority 2015, dated 2017):

Columns and labels:
Assay type in all cases: in vivo
[1] = tested on: Beet Armyworm (Spodoptera exigua, LAPHEG); assay: Bioassay on Beet Armyworm (BAW), 128-well diet tray assay; conditions: 168 h, 50 μg/cm^2 on artificial diet, second instar larvae, 25° C., five to seven days, average of eight wells, read-out: BAW % Control (or Mortality) rating
In short: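 Percent mortality, averaged across eight replicate wells, was scored after five to seven days at 25° C. under a 14:10 light-dark cycle. Each well's diet carried 50 μg/cm^2 of the dried test molecule and held one to five second instar larvae.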

[2] = tested on: Cabbage Looper (Trichoplusia ni, TRIPNI); assay: Bioassay on Cabbage Looper (CL), 128-well diet tray assay; conditions: 168 h, 50 μg/cm^2 on artificial diet, second instar larvae, 25° C., five to seven days, average of eight wells, read-out: CL % Control (or Mortality) rating
In short: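 Second-instar T. ni larvae (one to five per well) were placed on artificial diet treated with 50 μg/cm^2 compound, applied in 90:10 acetone-water and dried. Trays were held five to seven days at 25 °C under 14:10 light-dark. Percent mortality per well was averaged over eight wells.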

[3] = tested on: Green Peach Aphid (Myzus persicae, MYZUPE); assay: Bioassay on Green Peach Aphid (GPA), foliar spray on cabbage seedlings; conditions: 72 h, 200 ppm spray on infested cabbage seedlings, three days, Abbott corrected % control, read-out: GPA % Control (or Mortality) rating
Method: Certain molecules disclosed in this document were tested against GPA using procedures described in the following example. In the reporting of the results, the “GPA & YFM Rating Table” was used (See Table Section).
Cabbage seedlings grown in 3-inch pots, with 2-3 small (3-5 cm) true leaves, were used as test substrate. The seedlings were infested with 20-50 GPA (wingless adult and nymph stages) one day prior to chemical application. Four pots with individual seedlings were used for each treatment. Test molecules (2 mg) were dissolved in 2 mL of acetone/methanol (1:1) solvent, forming stock solutions of 1000 ppm test molecule. The stock solutions were diluted 5× with 0.025% Tween 20 in water to obtain the solution at 200 ppm test molecule. A hand-held aspirator-type sprayer was used for spraying a solution to both sides of […] leaves until runoff. Reference plants (solvent check) were sprayed with the diluent only containing 20% by volume of acetone/methanol (1:1) solvent. Treated plants were held in a holding room for three days at approximately 25° C. and ambient relative humidity (RH) prior to grading. Evaluation was conducted by counting the number of live aphids per plant under a microscope. Percent control was measured using Abbott's correction formula (W. S. Abbott, “A Method of Computing the Effectiveness of an Insecticide” J. Econ. Entomol. 18 (1925), pp. 265-267) as follows. Corrected % Control=100*(X−Y)/X where X=No. of live aphids on solvent check plants and Y=No. of live aphids on treated plants. The results are indicated in the table entitled “Table ABC: Biological Results” (See Table Section).

[4] = tested on: Yellow Fever Mosquito (Aedes aegypti, AEDSAE); assay: Bioassay on Yellow Fever Mosquito (YFM) larvae, 96-well plate; conditions: about 1 day-old larvae, room temperature, 3 days, scored on mortality
In short: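 Aedes aegypti larvae (about 1 day old) in liver-powder water were added to plates dispensed from DMSO master plates (4000 ppm stock) diluted with 90:10 water/acetone; six replicate plates per master. Lidded plates were held at room temperature for 3 days, then each well was scored for mortality.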

Row | Compound | mortality at 50 µg/cm2 [1] [%] | mortality at 50 µg/cm2 [2] [%] | mortality at 200 ppm [3] [%] | YFM % Control (or Mortality) rating [4]
1 | CCCCCCNC(=O)c1cc(NC(=O)[C@H]2[C@H](c3cc(Cl)cc(Cl)c3)C2(Cl)Cl)ccc1Cl (relative stereo) [F31, trans-2-Chloro-5-(2,2-dichloro-3-(3,5-dichlorophenyl)cyclopropane-1-carboxamido)-N-hexylbenzamide] | 50 to 100 | 50 to 100 | 0 to 80 | B (More than 0-Less than 80)
2 | CNC(=O)c1cc(NC(=O)[C@H]2[C@H](c3cc(Cl)cc(Cl)c3)C2(Cl)Cl)ccc1C(F)(F)F (relative stereo) [F2, trans-5-(2,2-Dichloro-3-(3,5-dichlorophenyl)cyclopropane-1-carboxamido)-N-methyl-2-(trifluoromethyl)benzamide] | 50 to 100 | 50 to 100 | 0 to 80 | A (80-100)
3 | COc1ccc(CNC(=O)c2cc(NC(=O)[C@H]3[C@H](c4cc(Cl)cc(Cl)c4)C3(Cl)Cl)ccc2Cl)c(OC)c1 (relative stereo) [F34, trans-2-Chloro-5-(2,2-dichloro-3-(3,5-dichlorophenyl)cyclopropane-1-carboxamido)-N-(2,4-dimethoxybenzyl)benzamide] | 50 to 100 | 50 to 100 | 0 | A (80-100)
4 | N#CCCCNC(=O)c1cc(NC(=O)[C@H]2[C@H](c3cc(Cl)cc(Cl)c3)C2(Cl)Cl)ccc1Cl (relative stereo) [F38, trans-2-Chloro-N-(3-cyanopropyl)-5-(2,2-dichloro-3-(3,5-dichlorophenyl)cyclopropane-1-carboxamido)benzamide] | 50 to 100 | 50 to 100 | 80 to 100 | A (80-100)
5 | O=C(NCc1ccncc1)c1cc(NC(=O)[C@H]2[C@H](c3cc(Cl)cc(Cl)c3)C2(Cl)Cl)ccc1Cl (relative stereo) [F12, trans-2-Chloro-5-(2,2-dichloro-3-(3,5-dichlorophenyl)cyclopropane-1-carboxamido)-N-(pyridin-4-ylmethyl)benzamide] | 50 to 100 | 50 to 100 | 0 to 80 | A (80-100)
6 | C=CCONC(=O)c1cc(NC(=O)[C@H]2[C@H](c3ccc(Cl)c(Cl)c3)C2(Cl)Cl)ccc1Cl (relative stereo) [F14, trans-N-(Allyloxy)-2-chloro-5-(2,2-dichloro-3-(3,4-dichlorophenyl)cyclopropane-1-carboxamido)benzamide] | 50 to 100 | 50 to 100 | 0 to 80 | A (80-100)
7 | CS(=O)(=O)CCNC(=O)c1cc(NC(=O)[C@H]2[C@H](c3cc(Cl)cc(Cl)c3)C2(Cl)Cl)ccc1Cl (relative stereo) [F75, trans-2-chloro-5-(2,2-dichloro-3-(3,5-dichlorophenyl)cyclopropane-1-carboxamido)-N-(2-(methylsulfonyl)ethyl)benzamide] | 50 to 100 | 50 to 100 | 80 to 100 | A (80-100)
8 | CC(=O)NCCNC(=O)c1cc(NC(=O)[C@H]2[C@H](c3cc(Cl)cc(Cl)c3)C2(Cl)Cl)ccc1Cl (relative stereo) [F55, trans-N-(2-Acetamidoethyl)-2-chloro-5-(2,2-dichloro-3-(3,5-dichlorophenyl)cyclopropane-1-carboxamido)benzamide] | 50 to 100 | 50 to 100 | 80 to 100 | B (More than 0-Less than 80)
9 | O=C(NCc1ccc(F)c(F)c1)c1cc(NC(=O)[C@H]2[C@H](c3cc(Cl)cc(Cl)c3)C2(Cl)Cl)ccc1Cl (relative stereo) [F32, trans-2-Chloro-5-(2,2-dichloro-3-(3,5-dichlorophenyl)cyclopropane-1-carboxamido)-N-(3,4-difluorobenzyl)benzamide] | 50 to 100 | 50 to 100 | 0 to 80 | A (80-100)
10 | O=C(NCc1ccccc1)c1cc(NC(=O)[C@H]2[C@H](c3cc(Cl)cc(Cl)c3)C2(Cl)Cl)ccc1Cl (relative stereo) [F27, trans-N-benzyl-2-chloro-5-(2,2-dichloro-3-(3,5-dichlorophenyl)cyclopropane-1-carboxamido)benzamide] | 50 to 100 | 50 to 100 | 0 to 80 | A (80-100)
11 | C[C@H](CS(=O)(=O)CC(F)(F)F)NC(=O)c1cc(NC(=O)C2C(c3cc(Cl)cc(Cl)c3)C2(Cl)Cl)ccc1Cl (stereo in doubt) [PF6, trans-2-Chloro-5-(2,2-dichloro-3-(3,5-dichlorophenyl)cyclopropane-1-carboxamido)-N—((R)-1-((2,2,2-trifluoroethyl)sulfonyl)propan-2-yl)benzamide] | 50 to 100 | 50 to 100 | 0 to 80 | A (80-100)
12 | CCCCCNC(=O)c1cc(NC(=O)[C@H]2[C@H](c3cc(Cl)cc(Cl)c3)C2(Cl)Cl)ccc1Cl (relative stereo) [F33, trans-2-Chloro-5-(2,2-dichloro-3-(3,5-dichlorophenyl)cyclopropane-1-carboxamido)-N-pentylbenzamide] | 50 to 100 | 50 to 100 | 0 to 80 | A (80-100)
13 | O=C(NOCC1CC1(F)F)c1cc(NC(=O)C2C(c3cc(Cl)cc(Cl)c3)C2(Cl)Cl)ccc1Cl (stereo not drawn) [F21, trans-N-2-Chloro-5-(2,2-dichloro-3-(3,5-dichlorophenyl)cyclopropane-1-carboxamido)-N-((2,2-difluorocyclopropyl)methoxy)benzamide] | 50 to 100 | 50 to 100 | 0 to 80 | B (More than 0-Less than 80)
14 | O=C(NCC1CC1)c1cc(NC(=O)[C@H]2[C@H](c3cc(Cl)cc(Cl)c3)C2(Cl)Cl)ccc1Cl (relative stereo) [F35, trans-2-Chloro-N-(cyclopropylmethyl)-5-(2,2-dichloro-3-(3,5-dichlorophenyl)cyclopropane-1-carboxamido)benzamide] | 50 to 100 | 50 to 100 | 80 to 100 | A (80-100)
15 | O=C(NCCCOCC(F)(F)F)c1cc(NC(=O)[C@H]2[C@H](c3cc(Cl)cc(Cl)c3)C2(Cl)Cl)ccc1Cl (relative stereo) [F39, trans-2-Chloro-5-(2,2-dichloro-3-(3,5-dichlorophenyl)cyclopropane-1-carboxamido)-N-(3-(2,2,2-trifluoroethoxy)propyl)benzamide] | 50 to 100 | 50 to 100 | 80 to 100 | A (80-100)
16 | C#CCNC(=O)c1cc(NC(=O)[C@H]2[C@H](c3cc(Cl)cc(Cl)c3)C2(Cl)Cl)ccc1Cl (relative stereo) [F47, trans-2-Chloro-5-(2,2-dichloro-3-(3,5-dichlorophenyl)cyclopropane-1-carboxamido)-N-(prop-2-yn-1-yl)benzamide] | 50 to 100 | 50 to 100 | 80 to 100 | A (80-100)
17 | O=C(NCC(F)(F)F)c1cc(NC(=O)[C@H]2[C@H](c3cc(Cl)cc(Cl)c3)C2(Cl)Cl)ccc1Cl (relative stereo) [F4, trans-2-Chloro-5-(2,2-dichloro-3-(3,5-dichlorophenyl)cyclopropane-1-carboxamido)-N-(2,2,2-trifluoroethyl)benzamide] | 50 to 100 | 50 to 100 | 80 to 100 | A (80-100)
